Results on 3 molecules are retold here after US20250248933A1, “Prophylactic and Therapeutic Agents for Upper Respiratory Tract Infections Caused by Influenza and Other Enveloped Viruses” (priority 2020, published 2025).

The conditions of series [1]: in vivo; cited from earlier work.
Another series has as its system common cold germs. Conditions: cited from earlier work.
For another series, the system named is rhinovirus. The settings on record: cited from earlier work.
The next series has as its system influenza viruses. The settings on record: determined by the present inventor.
The subject of the next series is rhinoviruses. Conditions: cited from earlier work.
The test system of a further series is common colds. The settings on record: 37 zinc-treated subjects; cited from earlier work.

With `CCCc1cc(=O)oc2c3c(c4c(c12)OC(C)(C)C=C4)O[C@H](C)[C@@H](C)[C@@H]3O` [Calanolide A], the safety and tolerability entry in series [1] was “safe and well tolerated”.
On to `CCO` [Ethanol, ethanol], for which, in the series with common cold germs, the “killing of common cold germs in oral mucosa” value is “known to kill”. In the series on rhinovirus, the activity against rhinovirus entry is given as “works well”. For the same molecule, the “ability to kill influenza viruses” value with influenza viruses is given as “ineffective”.
With zinc, the “inhibition of replication of rhinoviruses” value with rhinoviruses is recorded as “inhibit the replication”. The “subjects asymptomatic after seven days” value in the series with common colds is 86%.
